The values below come from patent US8222404B2, “[1,2,4]Thiadiazin-3-yl acetic acid compound and methods of making the acetic acid compound” (Anadys Pharmaceuticals, Inc., priority 2008, dated 2012).

SMILES strings stand for the structures.

The first experiment has as its system HCV Huh-luc/neo-ET replicon cells. Briefly: Luciferase-Based HCV Replicon Assay (EC50 (1b)). The experiment is classed as cell-based. The following applies: 72 hours exposure, luciferase activity. Summed up: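 Replicon cells seeded, then exposed 24 h later to a compound concentration series in triplicate for 72 h. Luciferase luminescence read; % inhibition vs no-compound control, with 100 nM BILN-2061 as background, used to derive EC50 (1b).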
For orientation: EC50 means the concentration giving half of the maximal effect. A higher EC50 goes with lower potency in that assay. `CS(=O)(=O)NCc1csc2c1S(=O)(=O)N=C(C1=C(O)C3C4CCC(C5CC54)C3N(Cc3ccc(F)cc3)C1=O)N2` (racemic) [Example 23, (rac-di-exo)-N-{3-[3-(4-Fluoro-benzyl)-6-hydroxy-4-oxo-3-aza-tetracyclo[6.3.2.0^2,7.0^9,11]tridec-5-en-5-yl]-1,1-dioxo-1,4-dihydro-1λ^6-thieno[2,3-e][1,2,4]thiadiazin-7-ylmethyl}-methanesulfonamide] returned an EC50 of no more than 0.005 µM.

The experiment is the same for the next values; noted with them: Hepatitis C virus, 72 hours exposure, luciferase activity.
With `CS(=O)(=O)NCc1csc2c1S(=O)(=O)N=C(C1=C(O)CC(C3CCC3)N(Cc3ccc(F)cc3)C1=O)N2` (racemic) [Example 6, rac-N-{3-[6-Cyclobutyl-1-(4-fluoro-benzyl)-4-hydroxy-2-oxo-1,2,5,6-tetrahydro-pyridin-3-yl]-1,1-dioxo-1,4-dihydro-1λ^6-thieno[2,3-e][1,2,4]thiadiazin-7-ylmethyl}-methanesulfonamide], the EC50 is 0.1 to 1 µM.

Consider `CC(C)CCn1nc(-c2cccs2)c(O)c(C2=NS(=O)(=O)c3c(CNS(C)(=O)=O)csc3N2)c1=O` [Example 28, N-{3-[5-Hydroxy-2-(3-methyl-butyl)-3-oxo-6-thiophen-2-yl-2,3-dihydro-pyridazin-4-yl]-1,1-dioxo-1,4-dihydro-1λ^6-thieno[2,3-e][1,2,4]thiadiazin-7-ylmethyl}-methanesulfonamide], for which the EC50 was 0.1 to 1 µM.

In turn, `CS(=O)(=O)NCc1csc2c1S(=O)(=O)N=C(C1=C(O)[C@@H]3[C@H]4CC[C@H](C4)[C@@H]3N(Cc3ccc(F)c(F)c3)C1=O)N2` [Example 88, N-{3-[(1R,2S,7R,8S)-3-(3,4-Difluoro-benzyl)-6-hydroxy-4-oxo-3-aza-tricyclo[6.2.1.0^2,7]undec-5-en-5-yl]-1,1-dioxo-1,4-dihydro-1λ^6-thieno[2,3-e][1,2,4]thiadiazin-7-ylmethyl}-methanesulfonamide] showed an EC50 of no more than 0.005 µM.

With `CS(=O)(=O)NCc1csc2c1S(=O)(=O)N=C(C1=C(O)C3CCCCCC3N(Cc3ccc(F)c(F)c3)C1=O)N2` (racemic) [Example 137, (rac-cis)-N-{3-[1-(3,4-Difluoro-benzyl)-4-hydroxy-2-oxo-2,4a,5,6,7,8,9,9a-octahydro-1H-cyclohepta[b]pyridin-3-yl]-1,1-dioxo-1,4-dihydro-1λ^6-thieno[2,3-e][1,2,4]thiadiazin-7-ylmethyl}-methanesulfonamide], the EC50 is 0.1 to 1 µM.

Take `COc1ccc(CN2C(=O)C(C3=NS(=O)(=O)c4c(CNS(C)(=O)=O)csc4N3)=C(O)C3C4CCC(O4)C32)c(OC)c1` (racemic) [Example 75, (rac-di-exo)-N-{3-[3-(2,4-Dimethoxy-benzyl)-6-hydroxy-4-oxo-11-oxa-3-aza-tricyclo[6.2.1.0^2,7]undec-5-en-5-yl]-1,1-dioxo-1,4-dihydro-1λ^6-thieno[2,3-e][1,2,4]thiadiazin-7-ylmethyl}-methanesulfonamide]: the half-maximal effective concentration (EC50) was greater than 1 µM.

The compound `CS(=O)(=O)NCc1csc2c1S(=O)(=O)N=C(C1=C(O)[C@@H]3[C@H]4CC[C@H](C4)[C@@H]3N(Cc3ccccc3)C1=O)N2` [Example 50, N-[3-((1R,2S,7R,8S)-3-Benzyl-6-hydroxy-4-oxo-3-aza-tricyclo[6.2.1.0^2,7]undec-5-en-5-yl)-1,1-dioxo-1,4-dihydro-1λ^6-thieno[2,3-e][1,2,4]thiadiazin-7-ylmethyl]-methanesulfonamide] yielded an EC50 of no more than 0.005 µM.

Consider `CS(=O)(=O)NCc1csc2c1S(=O)(=O)N=C(C1=C(O)C3CCCCC3N(Cc3ccccc3)C1=O)N2` (racemic) [Example 130, (rac-cis)-N-[3-(1-Benzyl-4-hydroxy-2-oxo-1,2,4a,5,6,7,8,8a-octahydro-quinolin-3-yl)-1,1-dioxo-1,4-dihydro-1λ^6-thieno[2,3-e][1,2,4]thiadiazin-7-ylmethyl]-methanesulfonamide], for which the EC50 was 0.1 to 1 µM.

With `COc1cc(CN2C(=O)C(C3=NS(=O)(=O)c4c(CNS(C)(=O)=O)csc4N3)=C(O)[C@@H]3CCC[C@@H]32)ccc1F` [Example 114, (4aR,7aS)-N-{3-[1-(4-Fluoro-3-methoxy-benzyl)-4-hydroxy-2-oxo-2,4a,5,6,7,7a-hexahydro-1H-[1]pyrindin-3-yl]-1,1-dioxo-1,4-dihydro-1λ^6-thieno[2,3-e][1,2,4]thiadiazin-7-ylmethyl}-methanesulfonamide], the EC50 fell in the range of 0.1 to 1 µM.

`CC(C)(C)CCN1C(=O)C(C2=NS(=O)(=O)c3c(CNS(C)(=O)=O)csc3N2)=C(O)[C@@H]2C3CCC(CC3)[C@@H]21` [Example 93, N-{3-[(2S,7R)-3-(3,3-Dimethyl-butyl)-6-hydroxy-4-oxo-3-aza-tricyclo[6.2.2.0^2,7]dodec-5-en-5-yl]-1,1-dioxo-1,4-dihydro-1λ^6-thieno[2,3-e][1,2,4]thiadiazin-7-ylmethyl}-methanesulfonamide]: the EC50 is no more than 0.005 µM.

Turning to `CS(=O)(=O)NCc1csc2c1S(=O)(=O)N=C(C1=C(O)[C@@H]3C4CCC(CC4)[C@@H]3N(Cc3ccc(F)c(F)c3)C1=O)N2` [Example 92, N-{3-[(2S,7R)-3-(3,4-Difluoro-benzyl)-6-hydroxy-4-oxo-3-aza-tricyclo[6.2.2.0^2,7]dodec-5-en-5-yl]-1,1-dioxo-1,4-dihydro-1λ^6-thieno[2,3-e][1,2,4]thiadiazin-7-ylmethyl}-methanesulfonamide], the EC50 was no more than 0.005 µM.

`CS(=O)(=O)NCc1csc2c1S(=O)(=O)N=C(C1=C(O)[C@@H]3C4CCC(CC4)[C@@H]3N(Cc3ccc(F)c(Cl)c3)C1=O)N2` [Example 44, N-{3-[(2S,7R)-3-(3-Chloro-4-fluoro-benzyl)-6-hydroxy-4-oxo-3-aza-tricyclo[6.2.2.0^2,7]dodec-5-en-5-yl]-1,1-dioxo-1,4-dihydro-1λ^6-thieno[2,3-e][1,2,4]thiadiazin-7-ylmethyl}-methanesulfonamide] registered an EC50 of no more than 0.005 µM.

Consider `CS(=O)(=O)NCc1csc2c1S(=O)(=O)N=C(C1=C(O)[C@@H]3CCC[C@@H]3N(Cc3ccc(F)cc3)C1=O)N2` [Example 110, (4aR,7aS)-N-{3-[1-(4-Fluoro-benzyl)-4-hydroxy-2-oxo-2,4a,5,6,7,7a-hexahydro-1H-[1]pyrindin-3-yl]-1,1-dioxo-1,4-dihydro-1λ^6-thieno[2,3-e][1,2,4]thiadiazin-7-ylmethyl}-methanesulfonamide], for which the EC50 was in the range of 0.005 to 0.02 µM.

As to `CS(=O)(=O)NCc1csc2c1S(=O)(=O)N=C(C1=C(O)[C@@H]3[C@H]4CC[C@H](C4)[C@@H]3N(CC3(C(F)(F)F)CC3)C1=O)N2` [Example 29, N-{3-[(1R,2S,7R,8S)-6-Hydroxy-4-oxo-3-(1-trifluoromethyl-cyclopropylmethyl)-3-aza-tricyclo[6.2.1.0^2,7]undec-5-en-5-yl]-1,1-dioxo-1,4-dihydro-1λ^6-thieno[2,3-e][1,2,4]thiadiazin-7-ylmethyl}-methanesulfonamide], the EC50 lay within 0.005 to 0.02 µM.

Turning to `CC(C)C1CN(Cc2ccc(F)cc2)C(=O)C(C2=NS(=O)(=O)c3c(CNS(C)(=O)=O)csc3N2)=C1O` (racemic) [Example 13, rac-N-{3-[1-(4-Fluoro-benzyl)-4-hydroxy-5-isopropyl-2-oxo-1,2,5,6-tetrahydro-pyridin-3-yl]-1,1-dioxo-1,4-dihydro-1λ^6-thieno[2,3-e][1,2,4]thiadiazin-7-ylmethyl}-methanesulfonamide], the EC50 lay in the range of 0.1 to 1 µM.

Take `CS(=O)(=O)NCc1csc2c1S(=O)(=O)N=C(C1=C(O)[C@@H]3[C@@H]4CC[C@@H](C4)[C@@H]3N(C3CCCCC3)C1=O)N2` [Example 98, N-[3-((1S,2S,7R,8R)-3-Cyclohexyl-6-hydroxy-4-oxo-3-aza-tricyclo[6.2.1.0^2,7]undec-5-en-5-yl)-1,1-dioxo-1,4-dihydro-1λ^6-thieno[2,3-e][1,2,4]thiadiazin-7-ylmethyl]-methanesulfonamide]: the EC50 was 0.1 to 1 µM.

The compound `CC(C)CCC1(C)CN(C2CCCC2)C(=O)C(C2=NS(=O)(=O)c3c(CNS(C)(=O)=O)csc3N2)=C1O` (racemic) [Example 21, rac-N-{3-[1-Cyclopentyl-4-hydroxy-5-methyl-5-(3-methyl-butyl)-2-oxo-1,2,5,6-tetrahydro-pyridin-3-yl]-1,1-dioxo-1,4-dihydro-1λ^6-thieno[2,3-e][1,2,4]thiadiazin-7-ylmethyl}-methanesulfonamide] gave an EC50 of 0.1 to 1 µM.

As for `CS(=O)(=O)NCc1csc2c1S(=O)(=O)N=C(C1=C(O)C3CCCCCC3N(Cc3ccccc3)C1=O)N2` (racemic) [Example 136, (rac-cis)-N-[3-(1-Benzyl-4-hydroxy-2-oxo-2,4a,5,6,7,8,9,9a-octahydro-1H-cyclohepta[b]pyridin-3-yl)-1,1-dioxo-1,4-dihydro-1λ^6-thieno[2,3-e][1,2,4]thiadiazin-7-ylmethyl]-methanesulfonamide], the EC50 fell in the range of 0.02 to 0.1 µM.

For the compound `CC(C)(C)CCN1C(=O)C(C2=NS(=O)(=O)c3c(CNS(C)(=O)=O)csc3N2)=C(O)C2C3CCC(O3)C21` (racemic) [Example 62, (rac-di-exo)-N-{3-[3-(3,3-Dimethyl-butyl)-6-hydroxy-4-oxo-11-oxa-3-aza-tricyclo[6.2.1.0^2,7]undec-5-en-5-yl]-1,1-dioxo-1,4-dihydro-1λ^6-thieno[2,3-e][1,2,4]thiadiazin-7-ylmethyl}-methanesulfonamide], the EC50 lay in the range of 0.005 to 0.02 µM.

Compound `CS(=O)(=O)NCc1csc2c1S(=O)(=O)N=C(C1=C(O)[C@@H]3[C@H]4CC[C@H](C4)[C@@H]3N(CC3CCCCC3)C1=O)N2` [Example 101, N-[3-((1R,2S,7R,8S)-3-Cyclohexylmethyl-6-hydroxy-4-oxo-3-aza-tricyclo[6.2.1.0^2,7]undec-5-en-5-yl)-1,1-dioxo-1,4-dihydro-1λ^6-thieno[2,3-e][1,2,4]thiadiazin-7-ylmethyl]-methanesulfonamide] showed an EC50 of 0.02 to 0.1 µM.

In turn, `CS(=O)(=O)NCc1csc2c1S(=O)(=O)N=C(C1=C(O)C3C4CCC(O4)C3NC1=O)N2` (racemic) [Example 83, (rac-di-exo)-N-[3-(6-Hydroxy-4-oxo-11-oxa-3-aza-tricyclo[6.2.1.0^2,7]undec-5-en-5-yl)-1,1-dioxo-1,4-dihydro-1λ^6-thieno[2,3-e][1,2,4]thiadiazin-7-ylmethyl]-methanesulfonamide] had an EC50 greater than 1 µM.
